In patent publication US8242275B2, “Bicyclic pyrazole compounds as antibacterial agents” (Janssen Pharmaceutica NV, priority 2005, dated 2012):
Values after ≈ are worked out from the molar mass of the structure shown.

Columns and labels:
E. coli DNA gyrase = target: T1, E. coli DNA gyrase (Escherichia coli, UniProt P0AES4+P0AES6); assay: DNA gyrase inhibition assay (supercoiling); format: biochemical; settings: E. coli DNA gyrase supercoiling, visual inspection of gels; read-out: DNA Gyrase IC50 (converted)
T1 construct: purchased John Innes Enterprises Ltd. (John Innes Centre, UK)
Procedure: Inhibition of the supercoiling activity of E. coli DNA gyrase was determined using enzymes, buffers and substrates received from John Innes Enterprises Ltd. (John Innes Centre, UK). The reactions were performed according to the manufacturer's directions, with the following modifications.
DNA supercoiling reactions were carried out in a total reaction volume of 20 μL containing 250 ng of relaxed pBR322, 35 mM Tris-HCl (pH 7.5), 24 mM KCl, 4 mM MgCl2, 2 mM dithiothreitol, 1.8 mM spermidine, 1 mM ATP, 6.5% glycerol and 100 μg/mL albumin. Compounds diluted in 10% DMSO were added to the reaction mixture to reach a final concentration of 0.5% DMSO. Enzyme was diluted to […] in a solution of 50 mM Tris-HCl (pH 7.5), 100 mM KCl, 2 mM dithiothreitol, 1 mM EDTA, and 50% glycerol. Diluted enzyme (0.2 unit) was added to each reaction.
The reactions were incubated at 37° C. for 30 min. The reactions were then cooled to 0° C., followed by addition of 3 μL of 40% glycerol, 100 mM Tris-HCl (pH 7.5), 50 mM EDTA, 0.5% SDS and 0.1% bromophenol blue. Samples were separated on 1.0% agarose gels. Gels were stained with Ethidium bromide and photographed with a Stratagene Eagle Eye II.

S. pneumoniae ATCC49619 = assay: In vitro antibacterial activity (MIC assay), broth microdilution; format: cell-based; settings: Streptococcus pneumoniae, ATCC49619; read-out: S. pneumoniae ATCC49619 MIC
Procedure: (§1) Minimal inhibitory concentration (MIC) has been an indicator of in vitro antibacterial activity widely used in the art. The in vitro antibacterial activity of the compounds was determined by the broth microdilution method described by the National Committee for Clinical Laboratory Standards (NCCLS) in the NCCLS Document M7-A5, Vol. 20, No. 2, “Methods for Dilution Antimicrobial Susceptibility Test for Bacteria that Grow Aerobically—Fifth Edition”, which is incorporated herein by reference.
(§2) In this method, an aliquot of test compound from an 11-point series of 2-fold serial dilutions of compounds in 100% DMSO was added to wells in microdilution plates. The test organisms were prepared by adjusting the turbidity of actively growing broth cultures so that the final concentration of test organism after addition to wells with or without compounds was approximately 5×10^5 CFU/mL.
(§3) Following inoculation of the microdilution plates, the plates were incubated at 35° C. for 16-24 h and then scored for bacterial growth. […] The amount of growth in the wells containing the test compound was compared with the amount of growth in the growth-control wells (no test compound used) in each plate, and with the amount of growth in the wells containing control compounds (such as ciprofloxacin). Compounds of the present invention were tested against several bacterial strains. The MIC values (in μg/mL) are presented in Table 1 for Gram-negative (E. coli KL-16 (GSC strain 4245); data marked as (*) was obtained with E. coli ATCC25922) and Gram-positive bacteria (S. aureus ATCC13709; S. pneumoniae ATCC49619).

[1] = tested on: E. coli KL-16 (GSC strain 4245); assay: as above; format: cell-based; settings: Escherichia coli
Procedure: as §1, §2, §3

S. aureus ATCC13709 = assay: as above; format: cell-based; settings: Staphylococcus aureus, ATCC13709; read-out: S. aureus ATCC13709 MIC
Procedure: as §1, §2, §3

T1 sequence (P0AES4 whole entry, one chain of several): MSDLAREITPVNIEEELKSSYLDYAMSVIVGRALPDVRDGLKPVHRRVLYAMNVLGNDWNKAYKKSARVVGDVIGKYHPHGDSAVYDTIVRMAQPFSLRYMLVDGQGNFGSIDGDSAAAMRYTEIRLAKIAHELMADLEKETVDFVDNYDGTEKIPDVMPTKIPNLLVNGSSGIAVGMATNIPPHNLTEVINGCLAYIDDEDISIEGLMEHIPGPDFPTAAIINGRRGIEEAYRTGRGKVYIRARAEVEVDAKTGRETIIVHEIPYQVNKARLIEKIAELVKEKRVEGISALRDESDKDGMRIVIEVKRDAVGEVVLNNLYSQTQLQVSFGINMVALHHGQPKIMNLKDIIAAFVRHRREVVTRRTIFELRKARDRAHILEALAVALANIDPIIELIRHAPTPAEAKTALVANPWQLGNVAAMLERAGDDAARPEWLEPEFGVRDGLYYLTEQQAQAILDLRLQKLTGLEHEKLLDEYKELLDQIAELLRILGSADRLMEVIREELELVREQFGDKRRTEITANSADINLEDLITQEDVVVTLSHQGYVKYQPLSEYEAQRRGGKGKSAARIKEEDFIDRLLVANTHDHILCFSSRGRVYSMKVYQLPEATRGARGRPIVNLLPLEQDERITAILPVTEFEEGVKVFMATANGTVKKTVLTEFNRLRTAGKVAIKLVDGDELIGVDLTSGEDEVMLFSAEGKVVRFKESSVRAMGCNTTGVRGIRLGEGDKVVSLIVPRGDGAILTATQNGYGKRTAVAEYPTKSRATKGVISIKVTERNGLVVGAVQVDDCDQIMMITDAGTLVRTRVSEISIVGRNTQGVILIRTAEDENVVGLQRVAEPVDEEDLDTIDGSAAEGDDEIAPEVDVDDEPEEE

Row | SMILES | IC50 (E. coli DNA gyrase) [µM] | MIC (S. pneumoniae ATCC49619) [µg/mL] | MIC [1] [µg/mL] | MIC (S. aureus ATCC13709) [µg/mL]
1 | COc1ccc2nccc(-n3cc4c(n3)CCC(N(CC(=O)OC(C)(C)C)Cc3ccc5c(c3)NC(=O)CS5)C4)c2n1 (centres unmarked) [Example 67, [[2-(6-Methoxy-[1,5]naphthyridin-4-yl)-4,5,6,7-tetrahydro-2H-indazol-5-yl]-(3-oxo-3,4-dihydro-2H-benzo[1,4]thiazin-6-ylmethyl)-amino]-acetic acid tert-butyl ester] | > 13.6 | 64 (≈ 109 µM) | > 128 | 4 (≈ 6.82 µM)
2 | COc1ccc2nccc(-n3cc4c(n3)CCC(NC(=O)/C=C/c3cccc(Cl)c3)C4)c2n1 (centres unmarked) [Example 12, 3-(3-Chloro-phenyl)-N-[2-(6-methoxy-[1,5]naphthyridin-4-yl)-4,5,6,7-tetrahydro-2H-indazol-5-yl]-acrylamide] | 4.35 | 8 (≈ 17.4 µM) | > 128 | 0.25 (≈ 0.544 µM)
3 | COc1ccc2nccc(-n3cc4c(n3)CCC(NC(=O)c3cc5cc(F)c(F)cc5[nH]3)C4)c2c1 (centres unmarked) [Example 74, 5,6-Difluoro-1H-indole-2-carboxylic acid [2-(6-methoxy-quinolin-4-yl)-4,5,6,7-tetrahydro-2H-indazol-5-yl]-amide] | 4.22 | 8 (≈ 16.9 µM) | > 128 | 1 (≈ 2.11 µM)
4 | O=C1CSc2ccc(CNC3CCc4c(cnn4-c4cc(C(F)(F)F)nc5ccccc45)C3)cc2N1 (centres unmarked) [Example 139, 6-{[1-(2-Trifluoromethyl-quinolin-4-yl)-4,5,6,7-tetrahydro-1H-indazol-5-ylamino]-methyl}-4H-benzo[1,4]thiazin-3-one] | > 31.4 | 32 (≈ 62.8 µM) | > 128 | 8 (≈ 15.7 µM)
5 | COc1ccc2nccc(-n3cc4c(n3)CCC(NC(=O)c3cccnc3Cl)C4)c2c1 (centres unmarked) [Example 78, 2-Chloro-N-[2-(6-methoxy-quinolin-4-yl)-4,5,6,7-tetrahydro-2H-indazol-5-yl]-nicotinamide] | > 36.9 | > 128 | > 128 | 16 (≈ 36.9 µM)
6 | COc1ccc2nccc(-n3cc4c(n3)CC(NC(=O)c3cc5c(cc3F)SCC(=O)N5)CC4)c2c1 (centres unmarked) [Example 28, 7-Fluoro-3-oxo-3,4-dihydro-2H-benzo[1,4]thiazine-6-carboxylic acid [2-(6-methoxy-quinolin-4-yl)-4,5,6,7-tetrahydro-2H-indazol-6-yl]-amide] | 3.97 | 4 (≈ 7.94 µM) | 16 (≈ 31.8 µM) | 0.25 (≈ 0.496 µM)
7 | COc1ccc2nccc(-n3cc4c(n3)CCC(NC(=O)c3ccc([N+](=O)[O-])cc3F)C4)c2c1 (centres unmarked) [Example 118, 2-Fluoro-N-[2-(6-methoxy-quinolin-4-yl)-4,5,6,7-tetrahydro-2H-indazol-5-yl]-4-nitro-benzamide] | > 34.7 | > 128 | > 128 | 4 (≈ 8.67 µM)
8 | COc1ccc2nccc(-n3ncc4c3CCC(NC(=O)c3cc5c(cc3F)SCC(=O)N5)C4)c2c1 (centres unmarked) [Example 19, 7-Fluoro-3-oxo-3,4-dihydro-2H-benzo[1,4]thiazine-6-carboxylic acid [1-(6-methoxy-quinolin-4-yl)-4,5,6,7-tetrahydro-1H-indazol-5-yl]-amide] | > 63.5 | 8 (≈ 15.9 µM) | > 128 | 0.5 (≈ 0.993 µM)
9 | COc1ccc2nccc(-n3cc4c(n3)CCC(NCc3ccc(N(C)C)c(C#N)c3F)C4)c2n1 (centres unmarked) [Example 35, 6-Dimethylamino-2-fluoro-3-{[2-(6-methoxy-[1,5]naphthyridin-4-yl)-4,5,6,7-tetrahydro-2H-indazol-5-ylamino]-methyl}-benzonitrile] | 4.24 | 1 (≈ 2.12 µM) | > 128 | < 0.125
10 | COc1ccc2nccc(-n3cc4c(n3)CCC(NCc3cc5c(cc3Cl)OCO5)C4)c2n1 (centres unmarked) [Example 105, N-((6-chlorobenzo[d][1,3]dioxol-5-yl)methyl)-2-(6-methoxy-1,5-naphthyridin-4-yl)-4,5,6,7-tetrahydro-2H-indazol-5-amine] | 4.31 | 4 (≈ 8.62 µM) | > 128 | 0.5 (≈ 1.08 µM)
11 | COc1ccc2nccc(-n3cc4c(n3)CCC(N(CC(=O)O)Cc3ccc5c(c3)NC(=O)CS5)C4)c2n1 (centres unmarked) [Example 68, [[2-(6-Methoxy-[1,5]naphthyridin-4-yl)-4,5,6,7-tetrahydro-2H-indazol-5-yl]-(3-oxo-3,4-dihydro-2H-benzo[1,4]thiazin-6-ylmethyl)-amino]-acetic acid] | 1.88 | 8 (≈ 15.1 µM) | > 128 | 8 (≈ 15.1 µM)
12 | COc1ccc2nccc(-n3cc4c(n3)CCC(NCC(=O)Nc3cc(F)cc(F)c3)C4)c2c1 (centres unmarked) [Example 61, N-(3,5-Difluoro-phenyl)-2-[2-(6-methoxy-quinolin-4-yl)-4,5,6,7-tetrahydro-2H-indazol-5-ylamino]-acetamide] | 4.32 | 8 (≈ 17.3 µM) | 16 (≈ 34.5 µM) | 0.5 (≈ 1.08 µM)
13 | COc1ccc2nccc(-n3cc4c(n3)CCC(NC(=O)/C=C/c3cc(F)ccc3C(F)(F)F)C4)c2n1 (centres unmarked) [Example 91, 3-(5-Fluoro-2-trifluoromethyl-phenyl)-N-[2-(6-methoxy-[1,5]naphthyridin-4-yl)-4,5,6,7-tetrahydro-2H-indazol-5-yl]-acrylamide] | > 31.3 | > 128 | > 128 | 4 (≈ 7.82 µM)
14 | COc1ccc2nccc(-n3cc4c(n3)CCC(NC(=O)/C=C/c3ccc(Cl)cc3)C4)c2n1 (centres unmarked) [Example 90, 3-(4-Chloro-phenyl)-N-[2-(6-methoxy-[1,5]naphthyridin-4-yl)-4,5,6,7-tetrahydro-2H-indazol-5-yl]-acrylamide] | > 34.8 | > 128 | > 128 | 0.5 (≈ 1.09 µM)
15 | COc1ccc2nccc(-n3cc4c(n3)CCC(NC(=O)/C=C/c3ccc(F)c(F)c3)C4)c2n1 (centres unmarked) [Example 93, 3-(3,4-Difluoro-phenyl)-N-[2-(6-methoxy-[1,5]naphthyridin-4-yl)-4,5,6,7-tetrahydro-2H-indazol-5-yl]-acrylamide] | > 34.7 | 16 (≈ 34.7 µM) | > 128 | 0.25 (≈ 0.542 µM)
16 | CCN(CC)c1ccc(CNC2CCc3nn(-c4ccnc5ccc(OC)nc45)cc3C2)cc1 (centres unmarked) [Example 85, (4-Diethylamino-benzyl)-[2-(6-methoxy-[1,5]naphthyridin-4-yl)-4,5,6,7-tetrahydro-2H-indazol-5-yl]-amine] | 4.38 | 8 (≈ 17.5 µM) | 64 (≈ 140 µM) | 8 (≈ 17.5 µM)
17 | COc1ccc2nccc(-n3cc4c(n3)CCC(NC(=O)c3cc5c(cc3Cl)SCC(=O)N5)C4)c2n1 (centres unmarked) [Example 6, 7-Chloro-3-oxo-3,4-dihydro-2H-benzo[1,4]thiazine-6-carboxylic acid [2-(6-methoxy-[1,5]naphthyridin-4-yl)-4,5,6,7-tetrahydro-2H-indazol-5-yl]-amide] | 0.23 | 4 (≈ 7.68 µM) | 2 (≈ 3.84 µM) | < 0.125
18 | COc1ccc2nccc(-n3cc4c(n3)CCC(NCc3ccc(N5CCCCC5)cc3)C4)c2n1 (centres unmarked) [Example 86, [2-(6-Methoxy-[1,5]naphthyridin-4-yl)-4,5,6,7-tetrahydro-2H-indazol-5-yl]-(4-piperidin-1-yl-benzyl)-amine] | 4.27 | 4 (≈ 8.54 µM) | > 128 | 4 (≈ 8.54 µM)
19 | COc1ccc2nccc(-n3cc4c(n3)CCC(NC(=O)c3cc5cc(Cl)ccc5[nH]3)C4)c2c1 (centres unmarked) [Example 77, 5-Chloro-1H-indole-2-carboxylic acid [2-(6-methoxy-quinolin-4-yl)-4,5,6,7-tetrahydro-2H-indazol-5-yl]-amide] | > 33.9 | 16 (≈ 33.9 µM) | > 128 | 2 (≈ 4.24 µM)
20 | COc1ccc2nccc(-n3cc4c(n3)CCC(NC(=O)c3cc5c(cc3Cl)SCC(=O)N5)C4)c2c1 (centres unmarked) [Example 20, 7-Chloro-3-oxo-3,4-dihydro-2H-benzo[1,4]thiazine-6-carboxylic acid [2-(6-methoxy-quinolin-4-yl)-4,5,6,7-tetrahydro-2H-indazol-5-yl]-amide] | 0.962 | 2 (≈ 3.85 µM) | 2 (≈ 3.85 µM) | < 0.125
